The values that follow are results of earlier work, collected in patent US20080213381A1, “Oral Drug Delivery System” (PHARMACEUTICAL INDUSTRIES LIMITED, priority 2005, published 2008).

Setting [1] is: oral, conventional immediate release dosage form of venlafaxine hydrochloride.

Take `COc1ccc(C(CN(C)C)C2(O)CCCCC2)cc1` (stereo not drawn) [venlafaxine]: for the setting “conventional immediate release dosage form”, the “time after oral administration at which plasma venlafaxine level is sub-therapeutic” value was “around 12 hours”. Under setting [1], the “time at which peak plasma concentration of the active metabolite is achieved” value is 4 h and the “time at which peak plasma concentration of venlafaxine is achieved” value was 2 h.
